{"source": "patent US20050014849A1", "about": "“Antifungal phenylethylene” (priority 2001, published 2005)", "key": {"C. laurentii ATCC 18803": {"test_system": "C. laurentii ATCC 18803", "test": "Broth macrodilution MIC/MFC", "format": "cell-based, Cryptococcus laurentii", "experimental": "(§1) TMPN was screened against yeasts by the broth macrodilution assay according to the NCCLS [7]. Yeasts were suspended and diluted as recommended to yield final inocula ranging from 0.5-2.5×10^3 cfu/ml. Tests were performed in sterile 12 by 75 mm plastic tubes containing two-fold dilutions of TMPN in 0.165 M morpholinepropanesulfonic acid buffered RPMI 1640 medium (pH 7.0). One tube was again left drug free (but contained an equivalent volume of DMSO) for a turbidity control. Tubes were incubated without agitation at the appropriate temperature (see Fungal Strains section above). MICs were determined after 72 h for Cryptococcus and after 48 h for other yeast genera. The MIC was defined as the lowest concentration of TMPN that inhibited all visible growth of the test organism (optically clear).\n(§2) Minimum fungicidal concentrations (MFCs) were determined by subculturing 0.1 ml from each tube with no visible growth in the MIC broth macrodilution series onto the appropriate drug-free plates (see Fungal Strains section above)."}, "C. laurentii ATCC 34142": {"test_system": "C. laurentii ATCC 34142", "test": "Broth macrodilution MIC/MFC", "format": "cell-based, Cryptococcus laurentii", "experimental": "as §1, §2"}, "C. laurentii ATCC 66036": {"test_system": "C. laurentii ATCC 66036", "test": "Broth macrodilution MIC/MFC", "format": "cell-based, Cryptococcus laurentii", "experimental": "as §1, §2"}, "C. albidus ATCC 34140": {"test_system": "C. albidus ATCC 34140", "test": "Broth macrodilution MIC/MFC", "format": "cell-based, Cryptococcus albidus", "experimental": "as §1, §2"}, "C. albidus ATCC 40666": {"test_system": "C. albidus ATCC 40666", "test": "Broth macrodilution MIC/MFC", "format": "cell-based, Cryptococcus albidus", "experimental": "as §1, §2"}, "C. albidus ATCC 66030": {"test_system": "C. albidus ATCC 66030", "test": "Broth macrodilution MIC/MFC", "format": "cell-based, Cryptococcus albidus", "experimental": "as §1, §2"}, "C. rugosa (7)": {"test_system": "C. rugosa (7)", "test": "Broth macrodilution MIC/MFC", "format": "cell-based, Candida rugosa", "experimental": "as §1, §2"}, "C. utilis ATCC 22023": {"test_system": "C. utilis ATCC 22023", "test": "Broth macrodilution MIC/MFC", "format": "cell-based, Candida utilis", "experimental": "as §1, §2"}, "C. utilis ATCC 9226": {"test_system": "C. utilis ATCC 9226", "test": "Broth macrodilution MIC/MFC", "format": "cell-based, Candida utilis", "experimental": "as §1, §2"}, "T. asahii ATCC 20039": {"test_system": "T. asahii ATCC 20039", "test": "Broth macrodilution MIC/MFC", "format": "cell-based, Trichosporon asahii", "experimental": "as §1, §2"}, "A. nidulans strain FGSC4": {"test_system": "A. nidulans strain FGSC4", "test": "Broth macrodilution MIC/MFC, filamentous fungi", "format": "cell-based, Aspergillus nidulans", "experimental": "Susceptibility testing of filamentous fungi was also conducted. Broth macrodilution susceptibility testing of P. lilacinus, Rhizopus spp. and Aspergillus spp. was performed in accordance with a proposed standardized procedure with slight modification. To induce conidium and sporangiospore formation, fungi were grown on PDA slants at 35° C. for 6 days (P. lilacinus, Rhizopus spp., all Aspergillus species except A. nidulans) or 3 days (A. nidulans). Fungal slants were covered with sterile 0.85% NaCl (P. lilacinus, Rhizopus spp., all Aspergillus species except A. nidulans) or 0.05% Tween 80 (A. nidulans), and suspensions were made by gently probing the colonies with the tip of a sterile Pasteur pipette. The resulting mixture of hyphal fragments and conidia or sporangiospores was withdrawn and transferred to a sterile clear microcentrifuge tube, and heavy particles were allowed to settle for 10 min. […] Susceptibility to TMPN was then determined by broth macrodilution as described above for yeast isolates. […]\nas §2"}, "CNS SF-295": {"test_system": "CNS SF-295", "test": "Sulforhodamine B cancer cell growth inhibition", "format": "cell-based", "settings": "Homo sapiens, 48 h, read-out: GI50 (inhibition of 50% of cell growth)", "experimental": "(§3) An investigation TMPN's in vitro antineoplastic activity was also conducted. This investigation included an analysis of both cell growth, and of the effects of TMPN upon tubulin. Inhibition of cancer cell growth was assessed using the Sulforhodamine B assay as previously described. Briefly, cells in 5% fetal calf serum/RPMI-1640 were inoculated into 96 well plates, incubated 24 h and 10-fold dilutions of TMPN added. After a 48 h incubation, plates were fixed with trichloroacetic acid, washed, stained with Sulforhodamine B and read with an automated microtiter plate reader."}, "Colon KM20L2": {"test_system": "Colon KM20L2", "test": "Sulforhodamine B cancer cell growth inhibition", "format": "cell-based", "settings": "Homo sapiens, KM-20L2, 48 h, read-out: GI50 (inhibition of 50% of cell growth)", "experimental": "as §3"}, "Lung-NSC NCI-H460": {"test_system": "Lung-NSC NCI-H460", "test": "Sulforhodamine B cancer cell growth inhibition", "format": "cell-based", "settings": "Homo sapiens, 48 h, read-out: GI50 (inhibition of 50% of cell growth)", "experimental": "as §3"}, "Ovarian OVCAR-3": {"test_system": "Ovarian OVCAR-3", "test": "Sulforhodamine B cancer cell growth inhibition", "format": "cell-based", "settings": "Homo sapiens, 48 h, read-out: GI50 (inhibition of 50% of cell growth)", "experimental": "as §3"}, "Pancreas BXPC-3": {"test_system": "Pancreas BXPC-3", "test": "Sulforhodamine B cancer cell growth inhibition", "format": "cell-based", "settings": "Homo sapiens, 48 h, read-out: GI50 (inhibition of 50% of cell growth)", "experimental": "as §3"}, "Prostate DU-145": {"test_system": "Prostate DU-145", "test": "Sulforhodamine B cancer cell growth inhibition", "format": "cell-based", "settings": "Homo sapiens, 48 h, read-out: GI50 (inhibition of 50% of cell growth)", "experimental": "as §3"}, "bovine brain tubulin": {"test_system": "T1, bovine brain tubulin", "T1 construct": "Electrophoretically homogeneous bovine brain tubulin [12]", "test": "Tubulin polymerization assay", "format": "biochemical", "settings": "1 mg/ml tubulin; 20 min incubation at 30° C.", "experimental": "Electrophoretically homogeneous bovine brain tubulin [12] was used in studies to evaluate the effects of TMPN on in vitro tubulin polymerization and the binding of […] (Dupont-NEN) to tubulin. These studies were performed as described previously. In the polymerization assay, varying drug concentrations were added to 1 mg/ml tubulin to determine the amount of drug that would inhibit the extent of the reaction by 50% (20 min incubation at 30° C.) (IC50 value). In the colchicine binding assay, the effect of varying drug concentrations on the binding of 2 μg/ml colchicine to 100 μg/ml tubulin was measured after 10 min at 37° C. (control reaction about 50% complete)."}}, "note": "“And” between values parts separate entries of the source, which are not always exact repeats. Identical values can stand only once."}
{"compound": "COc1cc(C=C[N+](=O)[O-])cc(OC)c1OC", "note": "[TMPN, 1-(3′,4′,5′-trimethoxyphenyl)-2-nitro-ethylene]", "values": [{"measurement": "MFC Range", "setting": "C. laurentii ATCC 18803", "result": 32, "unit": "µg/mL"}, {"measurement": "MIC Range", "setting": "C. laurentii ATCC 18803", "result": 16, "unit": "µg/mL"}, {"measurement": "MFC Range", "setting": "C. laurentii ATCC 34142", "result": 32, "unit": "µg/mL"}, {"measurement": "MIC Range", "setting": "C. laurentii ATCC 34142", "result": 32, "unit": "µg/mL"}, {"measurement": "MFC Range", "setting": "C. laurentii ATCC 66036", "result": 32, "unit": "µg/mL"}, {"measurement": "MIC Range", "setting": "C. laurentii ATCC 66036", "result": 16, "unit": "µg/mL"}, {"measurement": "MFC Range", "setting": "C. albidus ATCC 34140", "result": 32, "unit": "µg/mL"}, {"measurement": "MIC Range", "setting": "C. albidus ATCC 34140", "result": 32, "unit": "µg/mL"}, {"measurement": "MFC Range", "setting": "C. albidus ATCC 40666", "result": 32, "unit": "µg/mL"}, {"measurement": "MIC Range", "setting": "C. albidus ATCC 40666", "result": 8, "unit": "µg/mL"}, {"measurement": "MFC Range", "setting": "C. albidus ATCC 66030", "result": 16, "unit": "µg/mL"}, {"measurement": "MIC Range", "setting": "C. albidus ATCC 66030", "result": 8, "unit": "µg/mL"}, {"measurement": "MIC Range", "setting": "C. rugosa (7)", "result": "1 to 64", "unit": "µg/mL"}, {"measurement": "MFC Range", "setting": "C. utilis ATCC 22023", "result": 8, "unit": "µg/mL"}, {"measurement": "MIC Range", "setting": "C. utilis ATCC 22023", "result": 8, "unit": "µg/mL"}, {"measurement": "MFC Range", "setting": "C. utilis ATCC 9226", "result": 8, "unit": "µg/mL"}, {"measurement": "MIC Range", "setting": "C. utilis ATCC 9226", "result": 4, "unit": "µg/mL"}, {"measurement": "MFC Range", "setting": "T. asahii ATCC 20039", "result": 16, "unit": "µg/mL"}, {"measurement": "MIC Range", "setting": "T. asahii ATCC 20039", "result": 8, "unit": "µg/mL"}, {"measurement": "MFC Range", "setting": "A. nidulans strain FGSC4", "result": 16, "unit": "µg/mL"}, {"measurement": "MIC Range", "setting": "A. nidulans strain FGSC4", "result": 8, "unit": "µg/mL"}, {"measurement": "GI50", "setting": "CNS SF-295", "result": 2, "unit": "µg/mL"}, {"measurement": "GI50", "setting": "Colon KM20L2", "result": 1.4, "unit": "µg/mL"}, {"measurement": "GI50", "setting": "Lung-NSC NCI-H460", "result": 1.4, "unit": "µg/mL"}, {"measurement": "GI50", "setting": "Ovarian OVCAR-3", "result": 1.8, "unit": "µg/mL"}, {"measurement": "GI50", "setting": "Pancreas BXPC-3", "result": 1.6, "unit": "µg/mL"}, {"measurement": "GI50", "setting": "Prostate DU-145", "result": 1.1, "unit": "µg/mL"}, {"measurement": "IC50 for inhibition of the extent of tubulin assembly", "setting": "bovine brain tubulin", "result": "0.60 µg/mL and 0.60 ± 0.07 µg/mL"}]}
